Test results reported in patent publication US6458760B1, “Method for treating tissue damaged from ischemia” (Henry Ford Health System, priority 1998, dated 2002).
Residues, ends and D or L forms follow the SMILES beside them. *: point of attachment. Cbz = O=C(OCc1ccccc1)*; CHN2 = [N-]=[N+]=C*; Bn = c1ccc(C*)cc1

Biological target: Cathepsin L (Homo sapiens, UniProt P07711)
Test: Cathepsin L inactivation rate, fluorimetric progress curves
Assay type: biochemical
Conditions: second order inactivation rate constant corrected for substrate; substrate Z-Phe-Arg-AMC; pH 5.4, 30° C.
Method: (“Tian, et al.”) the contents of which are incorporated by reference. More specifically, the value of kobs is given by the slope of a plot of ln [P]∞−[p]t versus t (time). The apparent second-order rate contact for inactivation, k2app was calculated as kobs/[I]. The inactivation-rates (kobs) in the presence of substrate and for different inhibitor concentrations for calpain, cathepsin B and cathepsin L are determined according to the method of Tian, et al. However, k2app is corrected for the presence of substrate (s) to give the second order rate constant k^12app, calculated as k^12app=k2app (1+[s]/Km).
Cathepsins B and L were preactivated with […] DTT in 50 mM sodium acetate buffer, pH 5.4, 1 mM EDTA for 2 h at 4° C. and assayed in the same buffer with 0.01% Brij [poly(oxyethylene) glycol dodecyl ether]. 5 μM (final concentration) CBZ-Phe-Arg-AMC was used as substrate for both for cathepsins B and L. The inhibitors (0.1-1 μM) and substrate were added to the reaction mixture to incubate for 5 min in a cuvette thermostated at 30° C. Then, approximately 0.4 nM and 0.1 nM final concentration of cathepsin B and cathepsin L, respectively, were used to initiate the reaction. […] The progress curves were analyzed over at least 3 half lives to calculate the rate constants of inactivation in accordance with the procedure described by Crawford, C. Mason, R. W., Wilkström, P., and Shaw, E. in an article entitled “The design of peptidyldiazomethane inhibitors to distinguish between the cysteine proteinases calpain II, cathepsin L and cathepsin B.”, Biochem. J. 1988, 253, 751-758, the contents of which are incorporated by reference. The rates of inactivation of various substrates are tabulated hereinbelow.

Sequence of Cathepsin L (P07711 114-333, species assumed): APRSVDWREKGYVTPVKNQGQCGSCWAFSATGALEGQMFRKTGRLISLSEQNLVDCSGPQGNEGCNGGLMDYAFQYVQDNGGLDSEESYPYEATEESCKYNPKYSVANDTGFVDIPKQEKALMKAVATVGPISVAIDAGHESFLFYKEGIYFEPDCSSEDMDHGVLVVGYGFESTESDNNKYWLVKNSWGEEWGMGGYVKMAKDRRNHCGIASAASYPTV

For `[N-]=[N+]=CC(=O)C(COCc1ccccc1)NC(=O)C(Cc1ccccc1)NC(=O)OCc1ccccc1` (stereo not drawn) [CP-1, benzyloxycarbonyl-Phe-Ser(OBz)-CHN2] (Cbz-Phe-Ser(Bn)-CHN2; configuration not given here), the “Cathepsin L k′2app” value was 1,000,000 M^−1S^−1.
